US9650427B2, “Modulators of antiviral signaling pathways and therapeutic uses thereof” (priority 2011, dated 2017)

What was measured:
[1] = system: RLR/MAVS pathway; test: PolyIC-induced IFN expression in polarized T84 cells, quantitative RT-PCR; type: cell-based, human; details: T84 cells pretreated 1 hour with peptide/inhibitor, then PolyIC for 5 hours; FIG. 2
Experimental: FIG. 2 includes graphs showing the inhibitory effects of the novel RLR/MAVS signaling inhibitor. The results are from T84 cells that were treated for 1 hr with the inhibitors shown and then treated with PolyIC (PIC) for 5 hours. Cytokine expression was then assessed by qPCR. The y-axis indicates fold induction over untreated cells (UI).
To determine if the MAVS peptide can block RLR signaling in human cells, experiments were performed in the human intestinal epithelial cell (IEC) line T84 comparing the peptide to a previously characterized antennapedia-peptide that targets the TLR adaptor MyD88. These cells were chosen because it is well-known that many viruses penetrate the intestinal epithelium and it has been shown that they respond naturally to both TLR and RLR ligands (FIG. 2 and data not shown). Polarized T84 cells were pretreated for 1 hour with each peptide and then treated for 5 hours with synthetic viral RNA PolyIC, which activates signaling by […]. […] This inhibitory affect was specific, as the IFN expression was unaffected in cells treated with control peptides.

[2] = system: antiviral responses in human cells; test: Blocking of antiviral responses in human cells; type: cell-based; details: at micromolar concentrations
Excerpt: Accordingly, described herein is a cell-permeable peptide inhibitor of antiviral pathways that operates in every human cell. It consists of the cell penetrating domain of the Drosophila antennapedia protein and amino acids 50-73 of the human MAVS protein. […]. This peptide represents the first described means of blocking antiviral responses in human cells before or at any time after infection by a virus. Moreover, this molecule can serve as a therapeutic to treat inflammatory autoimmune diseases (e.g., those that are caused by inappropriate activation of antiviral responses). No other method currently exists to accomplish these goals.

Row | Compound | expression of Type I IFN (IFNβ) and Type III IFN IL-29 in response to PolyIC [1] | antiviral responses (expression of Type I and III interferons and interferon stimulated genes, including viperin) [2]
1 | GNRDTLWHLFNTLQRRPGWVEYFI-RQIKIWFQNRRMKWKK (GNRDTLWHLFNTLQRRPGWVEYFIRQIKIWFQNRRMKWKK) [MAVS peptide, fusion peptide of amino acids 50-73 of MAVS and the cell penetrating domain of the antennapedia protein] | completely abolished | blocks antiviral responses in human cells at micromolar concentrations
2 | CCN(CC)CCCC(C)Nc1ccnc2cc(Cl)ccc12 (stereo not drawn) [chloroquine, reference compound] | neither chloroquine (which blocks TLRs that detect viral RNA) nor inhibitors of the dsRNA dependent kinase PKR, affected | –
